From ChEMBL document CHEMBL2413072, “Synthesis and in vitro anticancer studies of novel C-2 arylidene congeners of lantadenes” (2013)

Key:
Assay type in all cases: functional
T47D = assay: Growth inhibition of human T47D cells assessed as cell growth at 10^-8 M by sulforhodamine B assay; conditions: read-out: Activity
PC-3 = assay: Growth inhibition of human PC3 cells assessed as cell growth at 10^-8 M by sulforhodamine B assay; conditions: read-out: Activity
MCF7 = assay: Growth inhibition of human MCF7 cells by sulforhodamine B assay
DU-145 = assay: Growth inhibition of human DU145 cells assessed as cell growth at 10^-4 M by sulforhodamine B assay; conditions: read-out: Activity
HT-29 [1] = assay: Growth inhibition of human HT-29 cells assessed as cell growth at 10^-8 M by sulforhodamine B assay; conditions: read-out: Activity
HT-29 [2] = assay: Growth inhibition of human HT-29 cells assessed as cell growth at 10^-4 M by sulforhodamine B assay; conditions: read-out: Activity
SK-MEL-2 = assay: Growth inhibition of human SK-MEL-2 cells assessed as cell growth at 10^-8 M by sulforhodamine B assay; conditions: read-out: Activity
NCI-H460 [3] = assay: Growth inhibition of human NCI-H460 cells assessed as cell growth at 10^-8 M by sulforhodamine B assay; conditions: read-out: Activity
ACHN = assay: Growth inhibition of human ACHN cells assessed as cell growth at 10^-7 M by sulforhodamine B assay; conditions: read-out: Activity
SF-295 = assay: Growth inhibition of human SF295 cells assessed as cell growth at 10^-7 M by sulforhodamine B assay; conditions: read-out: Activity
MOLT-4 = assay: Growth inhibition of human MOLT4 cells assessed as cell growth at 10^-4 M by sulforhodamine B assay; conditions: read-out: Activity
SN12C = assay: Growth inhibition of human SN12C cells assessed as cell growth at 10^-7 M by sulforhodamine B assay; conditions: read-out: Activity
IGROV-1 = assay: Growth inhibition of human IGROV1 cells assessed as cell growth at 10^-4 M by sulforhodamine B assay; conditions: read-out: Activity
LOX IMVI = assay: Growth inhibition of human LOXIMVI cells assessed as cell growth at 10^-4 M by sulforhodamine B assay; conditions: read-out: Activity
[4] = Growth inhibition of human NCI-ADR-RES cells assessed as cell growth at 10^-8 M by sulforhodamine B assay; conditions: read-out: Activity
SNB-75 = assay: Growth inhibition of human SNB75 cells assessed as cell growth at 10^-4 M by sulforhodamine B assay; conditions: read-out: Activity
NCI-H460 [5] = assay: Growth inhibition of human NCI-H460 cells assessed as cell growth at 10^-7 M by sulforhodamine B assay; conditions: read-out: Activity
OVCAR-8 = assay: Growth inhibition of human OVCAR8 cells assessed as cell growth at 10^-7 M by sulforhodamine B assay; conditions: read-out: Activity
COLO 205 = assay: Growth inhibition of human COLO205 cells assessed as cell growth at 10^-4 M by sulforhodamine B assay; conditions: read-out: Activity
OVCAR-5 = assay: Growth inhibition of human OVCAR5 cells assessed as cell growth at 10^-8 M by sulforhodamine B assay; conditions: read-out: Activity
Malme-3M = assay: Growth inhibition of human MALME-3M cells assessed as cell growth at 10^-7 M by sulforhodamine B assay; conditions: read-out: Activity
HL-60(TB) [6] = assay: Growth inhibition of human HL-60(TB) cells assessed as cell growth at 10^-8 M by sulforhodamine B assay; conditions: read-out: Activity
[7] = Growth inhibition of human NCI-ADR-RES cells by sulforhodamine B assay
HL-60(TB) [8] = assay: Growth inhibition of human HL-60(TB) cells by sulforhodamine B assay
SF-539 = assay: Growth inhibition of human SF539 cells assessed as cell growth at 10^-8 M by sulforhodamine B assay; conditions: read-out: Activity
KM12 [9] = assay: Growth inhibition of human KM12 cells assessed as cell growth at 10^-6 M by sulforhodamine B assay; conditions: read-out: Activity
RPMI-8226 = assay: Growth inhibition of human RPMI8226 cells assessed as cell growth at 10^-8 M by sulforhodamine B assay; conditions: read-out: Activity
NCI-H322M = assay: Growth inhibition of human NCI-H322M cells assessed as cell growth at 10^-6 M by sulforhodamine B assay; conditions: read-out: Activity
SNB-19 = assay: Growth inhibition of human SNB19 cells assessed as cell growth at 10^-4 M by sulforhodamine B assay; conditions: read-out: Activity
SK-MEL-5 = assay: Growth inhibition of human SK-MEL-5 cells assessed as cell growth at 10^-7 M by sulforhodamine B assay; conditions: read-out: Activity
A549 = assay: Growth inhibition of human A549/ATCC cells assessed as cell growth at 10^-4 M by sulforhodamine B assay; conditions: read-out: Activity
KM12 [10] = assay: Growth inhibition of human KM12 cells assessed as cell growth at 10^-7 M by sulforhodamine B assay; conditions: read-out: Activity
MDA-MB-435 = assay: Growth inhibition of human MDA-MB-435 cells assessed as cell growth at 10^-7 M by sulforhodamine B assay; conditions: read-out: Activity
OVCAR-3 = assay: Growth inhibition of human OVCAR3 cells assessed as cell growth at 10^-7 M by sulforhodamine B assay; conditions: read-out: Activity
SK-MEL-28 = assay: Growth inhibition of human SK-MEL-28 cells assessed as cell growth at 10^-6 M by sulforhodamine B assay; conditions: read-out: Activity
[11] = read-out: LC50 (the source's name)
[12] = read-out: pLC50 (the source's name) (converted)

Work on `CC(C)=CC(=O)O[C@@H]1CC(C)(C)C[C@H]2C3=CC[C@@H]4[C@@]5(C)CCC(=O)C(C)(C)[C@@H]5CC[C@@]4(C)[C@]3(C)CC[C@@]12C(=O)O` yielded a growth at 0.01 µM (T47D) of 103%, a growth at 0.01 µM (PC-3) of 96% and a GI50 (MCF7; read-out: GI50) of 3.29 µM. The CC50 (MCF7; [11]) was > 100 µM, the TGI (MCF7; read-out: TGI) was > 100 µM and the GI50 (MCF7; read-out: pGI50 (converted)) was 3.31 µM. The CC50 (MCF7; [12]) was > 100 µM, the TGI (MCF7; read-out: pTGI (converted)) was > 100 µM and the growth at 100 µM (DU-145) was -51%. For the same compound, the growth at 0.01 µM (HT-29 [1]) was 101%, the growth at 100 µM (HT-29 [2]) was -27% and the growth at 0.01 µM (SK-MEL-2) was 94%. For the same compound, the growth at 0.01 µM (NCI-H460 [3]) was 105%, the growth at 0.1 µM (ACHN) was 92% and the growth at 0.1 µM (SF-295) was 83%. For the same compound, the growth at 100 µM (MOLT-4) was -21%, the growth at 0.1 µM (SN12C) was 96% and the growth at 100 µM (IGROV-1) was -23%. The growth at 100 µM (LOX IMVI) was -47%, the growth at 0.01 µM [4] was 103% and the growth at 100 µM (SNB-75) was -31%. It also gave a growth at 0.1 µM (NCI-H460 [5]) of 101%, a growth at 0.1 µM (OVCAR-8) of 96% and a growth at 100 µM (COLO 205) of -76%. It also gave a growth at 0.01 µM (OVCAR-5) of 94%, a growth at 0.1 µM (Malme-3M) of 90% and a growth at 0.01 µM (HL-60(TB) [6]) of 106%. The GI50 ([7]; read-out: GI50) was 3.75 µM, the CC50 [7, 11] was > 100 µM and the TGI ([7]; read-out: TGI) was > 100 µM. The GI50 ([7]; read-out: pGI50 (converted)) was 3.72 µM, the CC50 [7, 12] was > 100 µM and the TGI ([7]; read-out: pTGI (converted)) was > 100 µM. For the same compound, the GI50 (HL-60(TB) [8]; read-out: GI50) was 2.21 µM, the CC50 (HL-60(TB) [8]; [11]) was > 100 µM and the TGI (HL-60(TB) [8]; read-out: TGI) was 5.38 µM. The GI50 (HL-60(TB) [8]; read-out: pGI50 (converted)) was 2.19 µM, the CC50 (HL-60(TB) [8]; [12]) was > 100 µM and the TGI (HL-60(TB) [8]; read-out: pTGI (converted)) was 5.37 µM. For the same compound, the growth at 0.01 µM (SF-539) was 93%, the growth at 1 µM (KM12 [9]) was 48% and the growth at 0.01 µM (RPMI-8226) was 101%. It also gave a growth at 1 µM (NCI-H322M) of 83%, a growth at 100 µM (SNB-19) of 7% and a growth at 0.1 µM (SK-MEL-5) of 91%. The growth at 100 µM (A549) was -41%, the growth at 0.1 µM (KM12 [10]) was 85% and the growth at 0.1 µM (MDA-MB-435) was 98%. The growth at 0.1 µM (OVCAR-3) was 100% and the growth at 1 µM (SK-MEL-28) was 103%.
